We go through seven molecules from patent US10654794B2, “Fused tricyclic Γ-amino acid derivative, preparation method therefor, and medical use thereof” (SICHUAN HAISO PHARMACEUTICAL CO., LTD., priority 2016, dated 2020).

The nature of series [1]: Pharmacokinetic evaluation in rats. Format: in vivo, Male SD rats. The note with it: rat; for AUC(0-inf) / half-life / bioavailability / Cmax: male, SD, plasma; for AUC(0-inf): read-out: Area under curve AUC0-inf; for half-life: read-out: Half-life t½ (converted); for bioavailability / Bioavailability F: Oral 10 mg/kg vs I.V. 5 mg/kg; for bioavailability: read-out: Bioavailability F; for Cmax: read-out: Blood Drug Level Cmax. The method, then: Pharmacokinetic Evaluation
Male SD rats (purchased from Vital River Laboratory Animal Technology Co., Ltd.), each weighing 180 to 240 g, were fasted overnight but allowed access to water. Three rats were administered by oral gavage at a dose of 10 mg/kg, and three rats were intravenously injected at 5 mg/kg. For the oral administration group, the compounds were formulated into 1.0 mg/mL suspensions with a 0.5% methylcellulose (MC) solution, and 200 μl blood was sampled before administration and 30 min, 1 h, 2 h, 4 h, 6 h, 8 h, 12 h and 24 h after administration. For the intravenous injection (I.V.) group, the compounds were formulated into 1.0 mg/ml solutions with physiological saline, and blood was sampled before administration and 5 min, 15 min, 30 min, 1 h, 2 h, 4 h, 8 h, 12 h and 24 h after administration. The blood samples were all anticoagulated with heparin, and centrifuged at 5500 rpm for 10 min to collect plasma, which was stored at −20° C. 10 μl plasma of rats for each of the time points was mixed with a 500 μl acetonitrile solution containing an internal standard, vortexed for 10 min, and centrifuged at 3700 rpm for 18 min. 50 μl of the supernatant was mixed with 100 μl water and vortexed for 10 min. 5 μl of the mixture was subjected to an LC-MS/MS analysis to determine the blood drug level of the parent drugs. The main pharmacokinetic parameters were analyzed using the software WinNonlin 6.3 at the non-compartment mode.

In series [2] the test system is pain in diabetic peripheral neuropathy. The note with it: patients with diabetic peripheral neuropathy; cited from earlier work.

SMILES strings stand for the structures. Where two headings read alike, the source gives them in different places.

As to `NC[C@@]1(CC(=O)O)[C@@H]2C[C@@H]3CC[C@H]1[C@H]2C3` (racemic) [Example 1, (±)-2-((1R,2R,3S,6R,8R)-2-(aminomethyl)tricyclo[4.2.1.0^3,8]nonan-2-yl)acetic acid], in series [1] (iv, 5 mg/kg, I.V., 5 mg/kg), the AUC(0-inf) stood at 6800 ng·h/mL and the half-life (as a rule, how long it takes for the measured level to halve) is 1.3 h. Further, the bioavailability (in general, the share of a dose that reaches the circulation, judged against a reference dose that is usually intravenous) in series [1] (po, 10 mg/kg) came out at 95%. In addition, in series [1] (po, 10 mg/kg, Oral, 10 mg/kg), the AUC(0-inf) stood at 12900 ng·h/mL; the Cmax – broadly, the maximum level reached in the sampled fluid or tissue – is 3000 ng/mL; the half-life is 2.3 h.

For the molecule `NC[C@@]1(CC(=O)O)[C@@H]2C[C@@H]3CC[C@H]1[C@H]2C3` (racemic) [Example 2, (±)-2-((1R,2R,3S,6R,8R)-2-(aminomethyl)tricyclo[4.2.1.0^3,8]nonan-2-yl)acetic acid benzenesulfonic acid (1:1)], in series [1] (I.V., 5 mg/kg), the “Area under curve AUC0-inf” value is 8147 ng·h/mL and the “Half-life t½” value is recorded as 1.40 h. In addition, in series [1], the “Bioavailability F” value is listed as 83.0%. For the same molecule, in series [1] (Oral, 10 mg/kg), the “Area under curve AUC0-inf” value stood at 13473 ng·h/mL, the “Blood Drug Level Cmax” value worked out at 3789 ng/mL and the “Half-life t½” value was 1.40 h.

With `NC[C@@]1(CC(=O)O)C2CC[C@H]3C[C@@H]2[C@@H]1C3` (single isomer, unassigned) [Example 5], in series [1] (iv, 5 mg/kg, I.V., 5 mg/kg), the AUC(0-inf) was 8210 ng·h/mL and the half-life was 2.4 h. In series [1] (po, 10 mg/kg), the bioavailability amounted to 87%. Besides, in series [1] (po, 10 mg/kg, Oral, 10 mg/kg), the AUC(0-inf) worked out at 14200 ng·h/mL, the Cmax was 4490 ng/mL and the half-life was 1.6 h.

Take `NCC1(CC(=O)O)C2CCC3CC2C1C3` (stereo not shown) [Example 6]: in series [1] (iv, 5 mg/kg, I.V., 5 mg/kg), the AUC(0-inf) stood at 8210 ng·h/mL and the half-life is 2.4 h. For the same molecule, the bioavailability in series [1] (po, 10 mg/kg) worked out at 83.2%. In series [1] (po, 10 mg/kg, Oral, 10 mg/kg), the AUC(0-inf) was determined as 13700 ng·h/mL, the Cmax amounted to 3710 ng/mL and the half-life was 1.4 h.

For the molecule `NC[C@@]1(CC(=O)O)[C@@H]2C[C@H]3C[C@@H]2[C@@H]1C3` [Example 7, 2-(4-(aminomethyl)tricyclo[3.2.1.0^3,6]octan-4-yl)acetic acid], in series [1] (iv, 5 mg/kg, I.V., 5 mg/kg), the AUC(0-inf) worked out at 11800 ng·h/mL and the half-life is 1.2 h. Also, the bioavailability in series [1] (po, 10 mg/kg) was found to be 97%. Besides, in series [1] (po, 10 mg/kg, Oral, 10 mg/kg), the AUC(0-inf) stood at 23000 ng·h/mL, the highest concentration (Cmax) was determined as 9140 ng/mL and the half-life was 1.1 h.

In the case of `NC[C@@]1(CC(=O)O)[C@@H]2C[C@H]3C[C@@H]2[C@@H]1C3` [Example 8, 2-(4-(aminomethyl)tricyclo[3.2.1.0^3,6]octan-4-yl)acetic acid benzenesulfonic acid (1:1)], in series [1] (I.V., 5 mg/kg), the “Area under curve AUC0-inf” value was 11788 ng·h/mL and the “Half-life t½” value amounted to 1.20 h. The “Bioavailability F” value in series [1] is 107.9%. In series [1] (Oral, 10 mg/kg), the “Area under curve AUC0-inf” value came out at 25443 ng·h/mL, the “Blood Drug Level Cmax” value was 8004 ng/mL and the “Half-life t½” value amounted to 2.10 h.

For the molecule `NCC1(CC(=O)O)CCCCC1` [gabapentin], the “proportion of patients whose pain is relieved to a great extent” value in series [2] is reported as “approximately 60%”.
